According to article PMC11365428 (The Journal of Biological Chemistry, 2024):
No end group written: not given here.

Key:
apTKRPR-B = target: T1, apTKRPR-B (Aplysia californica, UniProt A0AAU7STS1); assay: IP1 accumulation assay, CHO-K1 cells transiently expressing apTKRPR-B; type: cell-based; settings: for IP1 response of apTKRPR-B in screening: 10^-5 M compared with 10^-10 M (control), no Gαq cotransfection
T1 sequence (A0AAU7STS1 1-447): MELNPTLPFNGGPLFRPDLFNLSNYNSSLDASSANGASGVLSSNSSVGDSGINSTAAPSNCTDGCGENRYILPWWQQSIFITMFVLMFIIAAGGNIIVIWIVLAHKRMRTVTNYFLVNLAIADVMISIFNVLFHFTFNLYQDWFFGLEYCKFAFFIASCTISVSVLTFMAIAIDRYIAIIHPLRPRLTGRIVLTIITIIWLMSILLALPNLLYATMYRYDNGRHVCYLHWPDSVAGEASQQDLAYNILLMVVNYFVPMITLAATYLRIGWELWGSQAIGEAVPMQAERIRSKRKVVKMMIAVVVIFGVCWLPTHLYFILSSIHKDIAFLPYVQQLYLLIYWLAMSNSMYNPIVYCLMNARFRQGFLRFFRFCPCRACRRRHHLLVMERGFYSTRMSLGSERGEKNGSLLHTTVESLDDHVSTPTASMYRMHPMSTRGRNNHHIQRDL
Protocol: (§1) To express putative Aplysia receptors transiently in CHO-K1 cells, the cDNAs were subcloned into the pcDNA3.1(+) or pcDNA3.1(+)-FLAG (for ELISA experiments only, see “Cell surface expression analysis by ELISA” section) expression vector. On the day before transfection, the CHO-K1 cells were passaged into 60 mm diameter tissue culture–treated dishes, and the transfection experiments were performed when the cells were grown to 70 to 90% confluence. CHO-K1 cells were transfected with the cDNA plasmid constructs using Turbofect Transfection reagent (Thermo Fisher Scientific, R0531), following the manufacturer’s instructions. […] The DNA/TurboFect mixture dropwise was then added to the dish, and the cells were incubated at 37 °C in a humidified incubator containing 5% CO2 overnight.
(§2) On the third day, the activation of the putative receptors was detected by monitoring intracellular IP1 concentration using an IP-One Gq kit (Cisbio, 62IPAPEB) in Tecan Spark. Except for using 0.5x reagent, all other procedures were performed following the manufacturer’s instructions. IP1 accumulation assay measures the accumulation of IP1, which is hydrolyzed from the second messenger, and inositol triphosphate. Inositol triphosphate is generated by the Gαq pathway when a GPCR is activated by an appropriate ligand.

apTKRPR-A = target: T2, apTKRPR-A (Aplysia californica, UniProt A0AAU7SSZ1); assay: IP1 accumulation assay, CHO-K1 cells transiently expressing apTKRPR-A; type: cell-based; settings: for IP1 response of apTKRPR-A in screening: 10^-5 M compared with 10^-10 M (control), no Gαq cotransfection
T2 sequence (A0AAU7SSZ1 1-398): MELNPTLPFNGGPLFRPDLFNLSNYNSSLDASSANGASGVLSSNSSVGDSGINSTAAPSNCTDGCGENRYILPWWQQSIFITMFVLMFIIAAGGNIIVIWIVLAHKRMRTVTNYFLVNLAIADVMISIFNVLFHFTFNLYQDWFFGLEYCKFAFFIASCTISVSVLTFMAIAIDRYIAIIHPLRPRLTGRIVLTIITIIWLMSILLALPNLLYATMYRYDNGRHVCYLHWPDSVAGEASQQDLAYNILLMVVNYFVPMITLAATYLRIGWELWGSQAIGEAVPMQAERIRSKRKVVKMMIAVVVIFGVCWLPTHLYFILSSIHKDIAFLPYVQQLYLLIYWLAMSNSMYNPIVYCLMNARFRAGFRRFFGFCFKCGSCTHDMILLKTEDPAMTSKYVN
Protocol: as §1, §2

[1] = test system: putative neuropeptide FF receptor (apNPFFR); assay: IP1 accumulation assay, CHO-K1 cells transiently expressing putative neuropeptide FF receptor; type: cell-based, Aplysia californica; settings: 10^-5 M compared with 10^-10 M (control); n = 3; no Gαq cotransfection
Protocol: To express putative Aplysia receptors transiently in CHO-K1 cells, the cDNAs were subcloned into the pcDNA3.1(+) or pcDNA3.1(+)-FLAG (for ELISA experiments only, see “Cell surface expression analysis by ELISA” section) expression vector. On the day before transfection, the CHO-K1 cells were passaged into 60 mm diameter tissue culture–treated dishes, and the transfection experiments were performed when the cells were grown to 70 to 90% confluence. CHO-K1 cells were transfected with the cDNA plasmid constructs using Turbofect Transfection reagent (Thermo Fisher Scientific, R0531), following the manufacturer’s instructions. In brief, 4 μg of the putative receptor plasmids [in pcDNA3.1(+) or pcDNA3.1(+)-FLAG] were mixed with 400 μl of Opti-MEM (Gibco, 11058021), followed by the addition of 15 μl of TurboFect Transfection reagent and incubated at room temperature for 15 min. The DNA/TurboFect mixture dropwise was then added to the dish, and the cells were incubated at 37 °C in a humidified incubator containing 5% CO2 overnight.
as §2, with “The next day, transfected cells were trypsinized and reseeded in an opaque white 96-well half-area (Corning, 3688) or 384-well tissue culture–treated plates (Corning, 3570) at a density of 20,000 cells/well in F-12K and 10% FBS and incubated at 37 °C in a humidified incubator containing 5% CO2 overnight. On the” for “On the”

[2] = co-transfected with Gαq (Gα16), 10^-5 M compared with 10^-10 M, n = 3

| Substance | IP1 response of apTKRPR-B in screening (apTKRPR-B; n = 3) | IP1 response of apTKRPR-B in screening with Gαq cotransfection (apTKRPR-B; [2]) | IP1 response of apTKRPR-A in screening (apTKRPR-A; n = 3) | IP1 response of apTKRPR-A in screening with Gαq cotransfection (apTKRPR-A; [2]) | IP1 response of putative apNPFFR in screening [1] | EC50 (apTKRPR-B; log10 of EC50 in M, negative, IP1 accumulation, CHO-K1, mean ± SD of at least three independent experiments (apTKRP-1 n = 9; apTKRP-2a n = 11; apTKRP-2b n = 19; analogs, apTKRP-2b-OH n = 4), read-out: apTKRPR-B log[EC50] (converted)) [nM] | EC50 (apTKRPR-A; log10 of EC50 in M, negative, IP1 accumulation, CHO-K1, mean ± SD of at least three independent experiments (apTKRP-1 n = 9; apTKRP-2a n = 11; apTKRP-2b n = 19; analogs, apTKRP-2b-OH n = 4), read-out: apTKRPR-A log[EC50] (converted)) [nM] |
| --- | --- | --- | --- | --- | --- | --- | --- |
| FMPGLESLLLAKYYQDAKW [apTKRPG-DP] | did not activate | did not activate | did not activate | did not activate | did not respond |  |  |
| H-QPHLGFHGSR-NH2 [apTKRP-2a] | responded |  | responded |  | did not respond | 12.9 | 107 |
